Where two headings read alike, the source gives them in different places. Each block holds one molecule with its values, some of them ahead of it.
Legend:
[1] = target: T1, S-tetrahydroprotoberberineoxidase (Berberis wilsoniae, UniProt F1BVB6); assay: KM value of S-tetrahydroprotoberberineoxidase for substrate; assay type: biochemical, Berberis wilsonae var. subcaulialata; parameters: S-tetrahydroprotoberberineoxidase can be obtained by extraction from plant materials; from tissue; host or cells: plant material (Berberis wilsoniae inferred); conditions: at 40° C. and pH 8.9
Description: KM value for R,S-corypalmine at 40° C. and pH 8.9, 1.3 μMoles

[2] = target: T1, S-tetrahydroprotoberberineoxidase; assay: Enzymatic oxidation of R,S-substrates with S-tetrahydroprotoberberineoxidase preparation, photometric analysis; conditions: 37° C.; for Fate of R-form under enzymatic oxidation: pH=8.9; for Conversion of S-form into oxidized product: pH=8.9, admission of air
[3] = target: T1, S-tetrahydroprotoberberineoxidase; conditions: pH 8.9
[4] = target: T2, S-tetrahydroprotoberberineoxidase immobilized on calcium alginate (Berberis wilsoniae, UniProt F1BVB6); assay: Enzymatic oxidation with S-tetrahydroprotoberberineoxidase immobilized on calcium alginate, photometric analysis; assay type: biochemical, Berberis wilsonae var. subcaulialata; conditions: immobilized enzyme, 30° C., 150 hours, pH=8.9, admission of air
T2 construct: S-tetrahydroprotoberberineoxidase can be obtained by extraction from plant materials; from tissue; host or cells: plant material (Berberis wilsoniae inferred)
T2 sequence (F1BVB6 25-530): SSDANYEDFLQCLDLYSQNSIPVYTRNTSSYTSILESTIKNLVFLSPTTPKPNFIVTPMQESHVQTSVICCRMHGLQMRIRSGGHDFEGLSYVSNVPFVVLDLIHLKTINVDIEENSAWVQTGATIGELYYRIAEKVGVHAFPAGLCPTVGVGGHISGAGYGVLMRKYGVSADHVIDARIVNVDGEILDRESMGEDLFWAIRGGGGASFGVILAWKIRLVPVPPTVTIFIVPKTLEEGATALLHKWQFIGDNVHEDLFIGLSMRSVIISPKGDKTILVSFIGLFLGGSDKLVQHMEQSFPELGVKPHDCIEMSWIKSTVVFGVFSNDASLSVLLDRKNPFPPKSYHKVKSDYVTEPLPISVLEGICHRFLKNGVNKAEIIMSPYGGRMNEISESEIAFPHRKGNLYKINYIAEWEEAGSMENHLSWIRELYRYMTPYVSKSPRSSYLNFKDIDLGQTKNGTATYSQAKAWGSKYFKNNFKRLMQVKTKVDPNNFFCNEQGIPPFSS

[5] = target: T1, S-tetrahydroprotoberberineoxidase; assay: Inhibition of S-tetrahydroprotoberberineoxidase; assay type: biochemical, Berberis wilsonae var. subcaulialata; parameters: S-tetrahydroprotoberberineoxidase can be obtained by extraction from plant materials; from tissue; host or cells: plant material (Berberis wilsoniae inferred)

Km [1]: 1.3 µM
Compound: COc1cc2c(cc1O)CCN1Cc3c(ccc(OC)c3OC)CC21 (racemic) [R,S-corypalmine]

Compound: COc1ccc2c(c1OC)CN1CCc3cc4c(cc3[C@H]1C2)OCO4 [R-canadine]
Fate of R-form under enzymatic oxidation ([2]; after 2 hours): remained unchanged

Fate of R-form under enzymatic oxidation ([2]; after 2 hours): remained unchanged
Compound: COc1cc2c(cc1O)CCN1Cc3c(ccc(OC)c3OC)C[C@H]21 [R-corypalmine]

Fate of R-form under enzymatic oxidation ([2]; after 16 hours): remained unchanged
Compound: COc1ccc2c(c1)CCN[C@@H]2Cc1cc(O)cc(O)c1 [R-form]

Compound: COc1ccc(C[C@H]2NCCc3cc(OC)c(O)cc32)cc1O [R-norreticuline]
Fate of R-form under enzymatic oxidation ([2]; after 16 hours): remained unchanged

Conversion of S-form into oxidized product ([3]; 16 h): 100%
Compound: COc1ccc2c(c1)CCN[C@H]2Cc1cc(O)cc(O)c1 [S-[1-(3',5'-dihydroxy-benzyl)-6-methoxy-1,2,3,4-tetrahydroisoquinoline]]

Compound: COc1ccc2c(c1OC)CN1CCc3cc4c(cc3[C@@H]1C2)OCO4 [S-canadine]
Conversion of S-form into oxidized product ([2]; after 2 hours): 100%

Conversion of S-form into oxidized product ([3]; 2 h): 100%
Compound: COc1cc2c(cc1O)CCN1Cc3c(ccc(OC)c3OC)C[C@@H]21 [S-corypalmine]

Compound: COc1ccc(C[C@@H]2NCCc3cc(OC)c(O)cc32)cc1O [S-norreticuline]
Conversion to 1,2-dehydronorreticuline [4]: complete conversion | Conversion of S-form into oxidized product ([2]; after 16 hours): 100%

Compound: CC(=O)CC(C)=O [acetylacetone]
Inhibition of the enzyme in the presence of the substance [5]: Complete and reversible inhibition

Inhibition of the enzyme in the presence of the substance [5]: Complete and reversible inhibition
Compound: O=c1c(O)c(-c2ccc(O)cc2O)oc2cc(O)cc(O)c12 [morin]

Reference: US4657861A, “S-tetrahydroprotoberberineoxidase, process for producing the same and use thereof” (priority 1984, dated 1987)
